Data from the kinase profiling compilation of Christmann-Franck et al. (2016).

What was measured:
Assay in all cases: radiometric filter-binding kinase assay
[1] = tested on: AKT2 (human), P31751 [S474D]
BTK (human) = BTK (human) (UniProt Q06187)
CDK2 CCNA2 (human) = CDK2 CCNA2 (human) (UniProt P20248+P24941)
CHEK2 (human) = CHEK2 (human) (UniProt O96017)
CSK (human) = CSK (human) (UniProt P41240)
CSNK1D (human) = CSNK1D (human) (UniProt P48730)
EPHA4 (human) = EPHA4 (human) (UniProt P54764)
EPHB1 (human) = EPHB1 (human) (UniProt P54762)
EPHB4 (human) = EPHB4 (human) (UniProt P54760)
FLT1 (human) = FLT1 (human) (UniProt P17948)
IKBKB (human) = IKBKB (human) (UniProt O14920)
IKBKE (human) = IKBKE (human) (UniProt Q14164)
INSRR (human) = INSRR (human) (UniProt P14616)
MAP2K1 (human) = MAP2K1 (human) (UniProt Q02750)
MAPK1 (human) = MAPK1 (human) (UniProt P28482)
MAPK14 (human) = MAPK14 (human) (UniProt Q16539)
MAPK15 (human) = MAPK15 (human) (UniProt Q8TD08)
MAPK3 (human) = MAPK3 (human) (UniProt P27361)
MAPKAPK3 (human) = MAPKAPK3 (human) (UniProt Q16644)
MKNK2 (human) = MKNK2 (human) (UniProt Q9HBH9)
NEK2 (human) = NEK2 (human) (UniProt P51955)
NEK6 (human) = NEK6 (human) (UniProt Q9HC98)
PAK7 (human) = PAK7 (human) (UniProt Q9P286)
PIM2 (human) = PIM2 (human) (UniProt Q9P1W9)
PLK1 (human) = PLK1 (human) (UniProt P53350)
PRKACA (human) = PRKACA (human) (UniProt P17612)
RIPK2 (human) = RIPK2 (human) (UniProt O43353)
RPS6KA1 KD1 KD2 (human) = RPS6KA1 KD1 KD2 (human) (UniProt Q15418)
RPS6KA3 KD1 KD2 (human) = RPS6KA3 KD1 KD2 (human) (UniProt P51812)
RPS6KA5 KD1 KD2 (human) = RPS6KA5 KD1 KD2 (human) (UniProt O75582)
[2] = tested on: RPS6KB1 (human), P23443 [T412E]
SRC (human) = SRC (human) (UniProt P12931)
SYK (human) = SYK (human) (UniProt P43405)
TTK (human) = TTK (human) (UniProt P33981)

MAPKAPK3 (human), sequence (Q16644 whole entry, looked up): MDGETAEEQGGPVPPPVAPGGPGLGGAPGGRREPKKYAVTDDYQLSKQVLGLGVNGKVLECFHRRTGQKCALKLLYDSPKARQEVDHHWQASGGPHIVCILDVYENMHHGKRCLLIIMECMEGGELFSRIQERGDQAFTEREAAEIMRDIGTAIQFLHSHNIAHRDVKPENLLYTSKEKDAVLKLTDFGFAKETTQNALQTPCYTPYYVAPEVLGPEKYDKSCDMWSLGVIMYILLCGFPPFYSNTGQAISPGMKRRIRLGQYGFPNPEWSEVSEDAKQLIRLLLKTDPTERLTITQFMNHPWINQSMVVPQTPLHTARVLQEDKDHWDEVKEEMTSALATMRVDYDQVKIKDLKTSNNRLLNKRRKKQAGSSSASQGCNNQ
RPS6KA1 KD1 KD2 (human), sequence (Q15418 whole entry, looked up): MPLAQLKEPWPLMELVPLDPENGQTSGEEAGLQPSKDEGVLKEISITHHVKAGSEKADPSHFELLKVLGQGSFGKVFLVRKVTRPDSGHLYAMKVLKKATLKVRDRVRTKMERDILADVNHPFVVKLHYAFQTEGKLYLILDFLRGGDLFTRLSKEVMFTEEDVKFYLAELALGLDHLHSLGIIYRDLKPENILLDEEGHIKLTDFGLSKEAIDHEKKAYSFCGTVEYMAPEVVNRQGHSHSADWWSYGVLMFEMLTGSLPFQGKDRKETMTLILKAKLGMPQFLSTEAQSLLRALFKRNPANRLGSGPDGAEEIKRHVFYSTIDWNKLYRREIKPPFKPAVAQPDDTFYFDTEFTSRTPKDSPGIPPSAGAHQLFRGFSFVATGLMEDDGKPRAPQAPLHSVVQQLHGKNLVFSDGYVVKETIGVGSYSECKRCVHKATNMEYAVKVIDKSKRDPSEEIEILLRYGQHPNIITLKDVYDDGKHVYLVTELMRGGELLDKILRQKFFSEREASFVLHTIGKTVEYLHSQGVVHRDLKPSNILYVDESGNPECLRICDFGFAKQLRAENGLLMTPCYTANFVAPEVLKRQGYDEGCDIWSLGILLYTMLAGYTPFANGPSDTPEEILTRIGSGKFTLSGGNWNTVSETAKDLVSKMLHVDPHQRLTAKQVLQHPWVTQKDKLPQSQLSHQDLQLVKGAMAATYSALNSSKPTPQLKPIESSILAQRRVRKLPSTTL
MAP2K1 (human), sequence (Q02750 whole entry, looked up): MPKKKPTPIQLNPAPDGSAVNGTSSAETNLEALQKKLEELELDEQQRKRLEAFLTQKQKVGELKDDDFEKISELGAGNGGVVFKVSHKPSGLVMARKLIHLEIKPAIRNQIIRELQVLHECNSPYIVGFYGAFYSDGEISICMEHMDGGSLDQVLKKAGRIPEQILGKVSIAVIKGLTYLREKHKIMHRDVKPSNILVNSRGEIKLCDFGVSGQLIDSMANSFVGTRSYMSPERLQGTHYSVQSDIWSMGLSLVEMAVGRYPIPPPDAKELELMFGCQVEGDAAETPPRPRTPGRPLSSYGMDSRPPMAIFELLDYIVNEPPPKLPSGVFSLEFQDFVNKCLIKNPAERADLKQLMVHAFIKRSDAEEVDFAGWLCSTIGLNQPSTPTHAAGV
IKBKB (human), sequence (O14920 whole entry, looked up): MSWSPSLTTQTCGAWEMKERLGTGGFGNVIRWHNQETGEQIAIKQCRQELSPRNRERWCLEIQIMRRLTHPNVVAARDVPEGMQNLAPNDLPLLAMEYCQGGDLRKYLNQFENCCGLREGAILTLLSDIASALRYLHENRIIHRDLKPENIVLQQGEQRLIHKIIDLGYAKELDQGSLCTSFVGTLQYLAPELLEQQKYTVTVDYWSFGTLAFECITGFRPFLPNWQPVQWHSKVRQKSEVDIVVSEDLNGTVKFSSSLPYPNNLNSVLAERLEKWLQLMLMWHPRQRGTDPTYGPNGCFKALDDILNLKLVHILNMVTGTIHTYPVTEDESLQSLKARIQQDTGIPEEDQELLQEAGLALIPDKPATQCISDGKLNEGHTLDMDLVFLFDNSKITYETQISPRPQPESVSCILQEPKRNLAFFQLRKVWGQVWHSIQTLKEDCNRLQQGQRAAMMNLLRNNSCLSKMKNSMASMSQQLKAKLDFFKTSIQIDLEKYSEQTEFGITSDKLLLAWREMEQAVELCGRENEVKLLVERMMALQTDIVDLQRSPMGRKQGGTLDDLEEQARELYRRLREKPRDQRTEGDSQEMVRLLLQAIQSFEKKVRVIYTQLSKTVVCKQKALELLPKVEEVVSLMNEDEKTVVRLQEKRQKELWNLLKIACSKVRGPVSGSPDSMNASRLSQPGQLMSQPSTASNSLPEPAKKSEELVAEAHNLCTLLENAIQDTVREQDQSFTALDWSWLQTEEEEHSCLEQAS
PIM2 (human), sequence (Q9P1W9 whole entry, looked up): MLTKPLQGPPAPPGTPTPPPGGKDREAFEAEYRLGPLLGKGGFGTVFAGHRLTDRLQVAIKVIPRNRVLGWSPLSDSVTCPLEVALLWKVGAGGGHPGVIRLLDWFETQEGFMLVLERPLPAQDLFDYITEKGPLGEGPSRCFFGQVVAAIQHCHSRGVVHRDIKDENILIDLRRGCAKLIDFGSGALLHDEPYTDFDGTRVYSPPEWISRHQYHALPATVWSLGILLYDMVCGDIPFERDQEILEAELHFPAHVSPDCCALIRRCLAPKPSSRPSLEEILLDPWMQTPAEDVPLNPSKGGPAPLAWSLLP
AKT2 (human), P31751 [S474D], sequence (P31751 whole entry S474D, looked up): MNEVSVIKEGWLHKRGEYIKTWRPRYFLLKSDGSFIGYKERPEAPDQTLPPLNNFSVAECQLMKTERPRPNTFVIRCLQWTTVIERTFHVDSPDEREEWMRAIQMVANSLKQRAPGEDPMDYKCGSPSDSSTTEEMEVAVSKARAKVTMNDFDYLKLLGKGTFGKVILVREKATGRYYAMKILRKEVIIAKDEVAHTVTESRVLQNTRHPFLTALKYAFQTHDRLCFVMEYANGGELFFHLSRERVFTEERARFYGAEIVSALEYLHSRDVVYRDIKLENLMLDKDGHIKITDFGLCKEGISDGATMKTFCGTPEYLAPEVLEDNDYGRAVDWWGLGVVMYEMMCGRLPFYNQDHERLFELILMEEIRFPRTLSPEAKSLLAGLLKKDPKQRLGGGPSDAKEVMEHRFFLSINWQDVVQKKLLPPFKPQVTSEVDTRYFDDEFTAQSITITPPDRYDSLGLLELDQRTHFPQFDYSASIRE
EPHA4 (human), sequence (P54764 whole entry, looked up): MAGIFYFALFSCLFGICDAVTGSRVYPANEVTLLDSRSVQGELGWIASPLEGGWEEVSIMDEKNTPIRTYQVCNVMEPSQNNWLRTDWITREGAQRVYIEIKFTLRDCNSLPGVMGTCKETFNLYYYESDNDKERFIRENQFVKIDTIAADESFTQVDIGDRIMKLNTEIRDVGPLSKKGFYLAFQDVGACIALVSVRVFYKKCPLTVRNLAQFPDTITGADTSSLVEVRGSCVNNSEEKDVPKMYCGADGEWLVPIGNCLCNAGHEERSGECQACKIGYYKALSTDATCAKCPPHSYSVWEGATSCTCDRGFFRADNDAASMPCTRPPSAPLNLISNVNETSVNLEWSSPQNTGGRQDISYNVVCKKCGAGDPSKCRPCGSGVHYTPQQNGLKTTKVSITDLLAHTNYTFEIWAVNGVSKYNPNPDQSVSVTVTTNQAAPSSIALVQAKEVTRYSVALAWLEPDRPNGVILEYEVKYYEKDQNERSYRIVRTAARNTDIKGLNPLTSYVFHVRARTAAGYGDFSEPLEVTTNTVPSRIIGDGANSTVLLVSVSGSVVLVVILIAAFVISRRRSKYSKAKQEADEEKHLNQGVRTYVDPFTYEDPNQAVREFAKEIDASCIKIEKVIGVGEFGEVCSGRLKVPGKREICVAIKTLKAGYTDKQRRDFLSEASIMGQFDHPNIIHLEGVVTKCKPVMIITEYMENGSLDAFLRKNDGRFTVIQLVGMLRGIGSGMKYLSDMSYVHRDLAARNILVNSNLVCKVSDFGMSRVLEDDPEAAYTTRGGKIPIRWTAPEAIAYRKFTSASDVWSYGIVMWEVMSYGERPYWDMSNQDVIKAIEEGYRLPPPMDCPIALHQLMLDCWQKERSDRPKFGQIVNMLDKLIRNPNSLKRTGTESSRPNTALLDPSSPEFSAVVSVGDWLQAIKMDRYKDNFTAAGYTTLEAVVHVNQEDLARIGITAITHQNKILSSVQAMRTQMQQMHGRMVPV
MAPK15 (human), sequence (Q8TD08 whole entry, looked up): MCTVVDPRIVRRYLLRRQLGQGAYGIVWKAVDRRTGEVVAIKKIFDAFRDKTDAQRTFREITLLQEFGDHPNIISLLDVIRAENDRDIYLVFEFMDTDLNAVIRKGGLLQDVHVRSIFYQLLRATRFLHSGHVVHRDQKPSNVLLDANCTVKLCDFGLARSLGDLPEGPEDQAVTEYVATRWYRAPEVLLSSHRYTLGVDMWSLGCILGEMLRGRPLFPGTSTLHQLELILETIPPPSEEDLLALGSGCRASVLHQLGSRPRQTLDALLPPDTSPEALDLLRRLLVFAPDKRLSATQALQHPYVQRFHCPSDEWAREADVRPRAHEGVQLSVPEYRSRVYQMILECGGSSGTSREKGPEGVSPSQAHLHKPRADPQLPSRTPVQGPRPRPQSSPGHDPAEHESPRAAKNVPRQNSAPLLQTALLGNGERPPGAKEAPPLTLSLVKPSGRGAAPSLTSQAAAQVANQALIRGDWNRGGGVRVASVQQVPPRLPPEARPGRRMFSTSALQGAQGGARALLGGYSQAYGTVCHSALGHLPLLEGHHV
MAPK3 (human), sequence (P27361 whole entry, looked up): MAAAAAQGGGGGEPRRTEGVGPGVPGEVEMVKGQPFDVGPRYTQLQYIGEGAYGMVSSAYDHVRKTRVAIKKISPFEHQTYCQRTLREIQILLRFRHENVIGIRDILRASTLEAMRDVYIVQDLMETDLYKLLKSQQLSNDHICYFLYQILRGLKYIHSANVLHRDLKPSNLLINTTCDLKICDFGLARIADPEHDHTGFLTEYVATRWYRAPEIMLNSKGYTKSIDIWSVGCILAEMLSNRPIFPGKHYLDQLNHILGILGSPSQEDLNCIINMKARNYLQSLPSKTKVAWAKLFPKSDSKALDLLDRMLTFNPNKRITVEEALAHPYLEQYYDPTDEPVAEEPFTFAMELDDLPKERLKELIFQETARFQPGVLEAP

Question: What does the source list for O=C(NCCCNc1nc(Nc2cccc(CN3CCOCC3)c2)ncc1C1CC1)C1CCC1?
Answer: residual activity ([1]; compound 0.1 µM): 99%; residual activity ([1]; compound 1.0 µM): 108%; residual activity (BTK (human); compound 0.1 µM): 89%; residual activity (BTK (human); compound 1.0 µM): 77%; residual activity (CDK2 CCNA2 (human); compound 0.1 µM): 86%; residual activity (CDK2 CCNA2 (human); compound 1.0 µM): 47%; residual activity (CHEK2 (human); compound 0.1 µM): 105%; residual activity (CHEK2 (human); compound 1.0 µM): 72%; residual activity (CSK (human); compound 0.1 µM): 98%; residual activity (CSK (human); compound 1.0 µM): 112%; residual activity (CSNK1D (human); compound 0.1 µM): 99%; residual activity (CSNK1D (human); compound 1.0 µM): 66%; residual activity (EPHA4 (human); compound 0.1 µM): 103%; residual activity (EPHA4 (human); compound 1.0 µM): 114%; residual activity (EPHB1 (human); compound 0.1 µM): 107%; residual activity (EPHB1 (human); compound 1.0 µM): 108%; residual activity (EPHB4 (human); compound 0.1 µM): 101%; residual activity (EPHB4 (human); compound 1.0 µM): 117%; residual activity (FLT1 (human); compound 0.1 µM): 87%; residual activity (FLT1 (human); compound 1.0 µM): 74%; residual activity (IKBKB (human); compound 0.1 µM): 115%; residual activity (IKBKB (human); compound 1.0 µM): 122%; residual activity (IKBKE (human); compound 0.1 µM): 34%; residual activity (IKBKE (human); compound 1.0 µM): 23%; residual activity (INSRR (human); compound 0.1 µM): 107%; residual activity (INSRR (human); compound 1.0 µM): 118%; residual activity (MAP2K1 (human); compound 0.1 µM): 92%; residual activity (MAP2K1 (human); compound 1.0 µM): 84%; residual activity (MAPK1 (human); compound 0.1 µM): 111%; residual activity (MAPK1 (human); compound 1.0 µM): 110%; residual activity (MAPK14 (human); compound 0.1 µM): 100%; residual activity (MAPK14 (human); compound 1.0 µM): 107%; residual activity (MAPK15 (human); compound 0.1 µM): 81%; residual activity (MAPK15 (human); compound 1.0 µM): 34%; residual activity (MAPK3 (human); compound 0.1 µM): 105%; residual activity (MAPK3 (human); compound 1.0 µM): 112%; residual activity (MAPKAPK3 (human); compound 0.1 µM): 80%; residual activity (MAPKAPK3 (human); compound 1.0 µM): 104%; residual activity (MKNK2 (human); compound 0.1 µM): 80%; residual activity (MKNK2 (human); compound 1.0 µM): 50%; residual activity (NEK2 (human); compound 0.1 µM): 107%; residual activity (NEK2 (human); compound 1.0 µM): 97%; residual activity (NEK6 (human); compound 0.1 µM): 94%; residual activity (NEK6 (human); compound 1.0 µM): 90%; residual activity (PAK7 (human); compound 0.1 µM): 95%; residual activity (PAK7 (human); compound 1.0 µM): 88%; residual activity (PIM2 (human); compound 0.1 µM): 94%; residual activity (PIM2 (human); compound 1.0 µM): 85%; residual activity (PLK1 (human); compound 0.1 µM): 89%; residual activity (PLK1 (human); compound 1.0 µM): 98%; residual activity (PRKACA (human); compound 0.1 µM): 90%; residual activity (PRKACA (human); compound 1.0 µM): 100%; residual activity (RIPK2 (human); compound 0.1 µM): 109%; residual activity (RIPK2 (human); compound 1.0 µM): 112%; residual activity (RPS6KA1 KD1 KD2 (human); compound 0.1 µM): 73%; residual activity (RPS6KA1 KD1 KD2 (human); compound 1.0 µM): 34%; residual activity (RPS6KA3 KD1 KD2 (human); compound 0.1 µM): 71%; residual activity (RPS6KA3 KD1 KD2 (human); compound 1.0 µM): 56%; residual activity (RPS6KA5 KD1 KD2 (human); compound 0.1 µM): 98%; residual activity (RPS6KA5 KD1 KD2 (human); compound 1.0 µM): 68%; residual activity ([2]; compound 0.1 µM): 101%; residual activity ([2]; compound 1.0 µM): 101%; residual activity (SRC (human); compound 0.1 µM): 88%; residual activity (SRC (human); compound 1.0 µM): 70%; residual activity (SYK (human); compound 0.1 µM): 109%; residual activity (SYK (human); compound 1.0 µM): 93%; residual activity (TTK (human); compound 0.1 µM): 94%; residual activity (TTK (human); compound 1.0 µM): 74%
